This note sets out measurements from paper PMC4290489, “Identification of multiple salicylic acid-binding proteins using two high throughput screens” (Frontiers in Plant Science, 2015).

Format in all cases: binding
The target of one assay is T1, RBCS1A (Arabidopsis thaliana, UniProt P10795).
T1 construct: gene RBCS-1A; small subunit alone, N-terminal His6 (pET28a), from E. coli
The assay can be described thus: UV photo-crosslinking, anti-SA immunoblot. To be noted: 50 uM 4AzSA, PBS, on ice, 254 nm UV; covalent; competed by SA.

Another assay has as its target T2, TRX-m1 (Arabidopsis thaliana, UniProt O48737).
T2 construct: gene At1g03680; N-terminal His6 (pET28a), from E. coli
T2 sequence (O48737 49-179): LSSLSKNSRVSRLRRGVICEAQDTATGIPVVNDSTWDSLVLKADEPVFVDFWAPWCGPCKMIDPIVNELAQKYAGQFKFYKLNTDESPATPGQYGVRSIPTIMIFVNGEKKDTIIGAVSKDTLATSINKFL
The experiment in a line: UV photo-crosslinking, anti-SA immunoblot. Particulars: 50 uM 4AzSA, PBS, on ice, 254 nm UV; covalent; competed by SA. In general terms: In western blotting, separated proteins are transferred to a membrane and probed.

For a further assay, the target named is T3, HPR2 (Arabidopsis thaliana, UniProt Q9CA90).
T3 construct: N-terminal His6 (pET28a), from E. coli
T3 sequence (Q9CA90 1-313): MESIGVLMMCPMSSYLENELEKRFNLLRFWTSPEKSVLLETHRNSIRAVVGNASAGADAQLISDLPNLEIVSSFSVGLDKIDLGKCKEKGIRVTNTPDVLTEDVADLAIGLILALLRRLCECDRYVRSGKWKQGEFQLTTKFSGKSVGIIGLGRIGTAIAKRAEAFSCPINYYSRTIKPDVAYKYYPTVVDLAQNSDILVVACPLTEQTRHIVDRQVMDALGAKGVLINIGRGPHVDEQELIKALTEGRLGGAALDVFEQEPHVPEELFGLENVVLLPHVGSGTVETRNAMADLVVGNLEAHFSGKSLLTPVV
The assay can be described thus: SPR competition on 3AESA chip; competition of 4AzSA photo-crosslinking. To be noted: 1-5 mM SA, HBS-EP pH 7.4 (SPR); competes with 3AESA and 4AzSA.

The target of the next assay is T4, TPPII (Arabidopsis thaliana, UniProt F4JVN6).
T4 construct: gene TPP2; N-terminal His6 (pET28a), from E. coli
T4 sequence (F4JVN6 1-1380): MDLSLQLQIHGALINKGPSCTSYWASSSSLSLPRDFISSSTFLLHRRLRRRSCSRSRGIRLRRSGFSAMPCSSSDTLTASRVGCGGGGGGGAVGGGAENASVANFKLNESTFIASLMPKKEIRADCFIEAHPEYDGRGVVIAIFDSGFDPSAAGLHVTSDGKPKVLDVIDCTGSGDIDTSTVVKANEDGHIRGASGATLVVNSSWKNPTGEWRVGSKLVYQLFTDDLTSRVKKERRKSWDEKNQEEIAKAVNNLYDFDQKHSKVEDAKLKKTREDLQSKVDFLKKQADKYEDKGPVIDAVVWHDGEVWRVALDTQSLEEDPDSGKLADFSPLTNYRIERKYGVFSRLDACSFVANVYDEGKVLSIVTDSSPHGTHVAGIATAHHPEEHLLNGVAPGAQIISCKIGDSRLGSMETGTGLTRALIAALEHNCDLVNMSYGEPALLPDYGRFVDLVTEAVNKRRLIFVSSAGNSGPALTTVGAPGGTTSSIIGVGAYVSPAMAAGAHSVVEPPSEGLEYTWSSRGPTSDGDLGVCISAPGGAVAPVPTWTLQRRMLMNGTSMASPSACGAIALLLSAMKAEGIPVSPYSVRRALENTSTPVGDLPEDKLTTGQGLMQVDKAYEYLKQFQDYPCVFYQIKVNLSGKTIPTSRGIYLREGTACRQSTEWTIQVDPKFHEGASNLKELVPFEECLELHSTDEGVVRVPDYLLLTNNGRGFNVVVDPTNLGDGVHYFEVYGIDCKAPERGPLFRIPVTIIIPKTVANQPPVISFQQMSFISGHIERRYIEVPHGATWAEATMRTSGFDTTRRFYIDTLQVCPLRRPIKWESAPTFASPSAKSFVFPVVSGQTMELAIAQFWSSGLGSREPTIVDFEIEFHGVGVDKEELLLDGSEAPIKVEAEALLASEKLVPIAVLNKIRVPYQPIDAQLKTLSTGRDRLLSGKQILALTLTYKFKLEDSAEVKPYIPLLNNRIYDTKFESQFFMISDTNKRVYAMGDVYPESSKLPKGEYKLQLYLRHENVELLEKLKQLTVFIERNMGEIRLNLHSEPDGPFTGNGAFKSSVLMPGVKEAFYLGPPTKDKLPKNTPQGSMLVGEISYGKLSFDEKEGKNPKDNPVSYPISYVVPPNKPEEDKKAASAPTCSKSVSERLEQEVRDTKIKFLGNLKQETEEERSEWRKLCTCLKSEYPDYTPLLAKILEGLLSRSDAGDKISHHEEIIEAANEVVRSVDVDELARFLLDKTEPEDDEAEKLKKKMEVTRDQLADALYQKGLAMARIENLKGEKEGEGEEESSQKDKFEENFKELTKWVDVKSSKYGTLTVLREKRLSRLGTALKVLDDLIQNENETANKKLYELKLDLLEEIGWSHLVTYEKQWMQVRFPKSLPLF
Described as above. Particulars: 1-5 mM SA, HBS-EP pH 7.4 (SPR); competes with 3AESA and 4AzSA.

The target in a further assay is T5, GPX2 (Arabidopsis thaliana, UniProt O04922).
T5 construct: N-terminal His6 (pET28a), from E. coli
T5 sequence (O04922 1-169): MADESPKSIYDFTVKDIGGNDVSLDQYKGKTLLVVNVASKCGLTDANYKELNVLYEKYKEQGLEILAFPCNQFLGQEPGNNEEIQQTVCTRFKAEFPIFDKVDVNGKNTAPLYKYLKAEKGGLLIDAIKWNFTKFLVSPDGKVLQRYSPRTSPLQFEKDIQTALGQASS
The description is as above. To be noted: 1-5 mM SA, HBS-EP pH 7.4 (SPR); competes with 3AESA and 4AzSA.

A further assay deals with T6, SHM4 (Arabidopsis thaliana, UniProt O23254).
T6 construct: N-terminal His6 (pET28a), from E. coli
T6 sequence (O23254 1-471): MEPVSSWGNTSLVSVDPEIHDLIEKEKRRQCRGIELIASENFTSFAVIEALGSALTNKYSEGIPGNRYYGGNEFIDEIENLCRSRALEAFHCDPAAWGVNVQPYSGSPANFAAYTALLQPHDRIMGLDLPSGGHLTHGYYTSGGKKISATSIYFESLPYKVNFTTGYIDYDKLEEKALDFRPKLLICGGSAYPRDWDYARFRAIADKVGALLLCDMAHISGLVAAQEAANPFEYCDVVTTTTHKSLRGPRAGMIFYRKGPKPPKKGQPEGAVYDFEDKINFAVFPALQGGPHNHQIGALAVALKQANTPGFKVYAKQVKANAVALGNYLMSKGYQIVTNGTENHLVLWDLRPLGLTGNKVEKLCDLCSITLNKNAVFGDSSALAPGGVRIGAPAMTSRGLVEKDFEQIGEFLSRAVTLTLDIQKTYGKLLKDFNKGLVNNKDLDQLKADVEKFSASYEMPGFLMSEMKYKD
Described as above. To be noted: 1-5 mM SA, HBS-EP pH 7.4 (SPR); competes with 3AESA and 4AzSA.

The structures appear in SMILES notation.

As for `[N-]=[N+]=Nc1ccc(C(=O)O)c(O)c1` [4AzSA], the “UV photo-crosslinking, anti-SA immunoblot” value at RBCS1A was “bound 3AESA and crosslinked to 4AzSA in an SA-inhibitable manner, indicating that they are SABPs”; on TRX-m1, “These five proteins also bound and crosslinked to 4AzSA”.

Take `O=C(O)c1ccccc1O` [SA]: the “SPR competition on 3AESA chip; competition of 4AzSA photo-crosslinking” value on HPR2 was “bound 3AESA and crosslinked to 4AzSA in an SA-inhibitable manner, indicating that they are SABPs”; on TPPII, “SA competes with 3AESA and 4AzSA for binding by TRX-m1, TPPII, SHM4, and LOX2”; on GPX2, “bound 3AESA and crosslinked to 4AzSA in an SA-inhibitable manner, indicating that they are SABPs”; at SHM4, “SA competes with 3AESA and 4AzSA for binding by TRX-m1, TPPII, SHM4, and LOX2”.
